Results reported in patent US7888386B2, “3-(phenoxyphenylmethyl)pyrrolidine compounds” (Theravance, Inc., priority 2008, dated 2011).
Where two headings read alike, the source gives them in different places.

Assays:
hSERT = molecular target: T1, hSERT (Homo sapiens, UniProt P31645); assay: hSERT binding assay (Assay 1)
T1 construct: expressed in transfected cells; host or cells: HEK-293 derived cell line, stably transfected; membrane preparation
Procedure: (§1) Membrane radioligand binding assays were used to measure competitive inhibition of labeled ligand (^3H-citalopram or ^3H-nisoxetine or ^3H-WIN35428) binding to membranes prepared from cells expressing the respective human recombinant transporter (hSERT or hNET or hDAT) in order to determine the pKi values of test compounds at the transporters.
(§2) Recombinant human embryonic kidney (HEK-293) derived cell lines stably transfected with hSERT or hNET, respectively, were grown in DMEM medium supplemented with 10% dialyzed FBS (for hSERT) or FBS (for hNET), 100 μg/ml penicillin, 100 μg/ml streptomycin, 2 mM L-glutamine and 250 μg/ml of the aminoglycoside antibiotic G418, in a 5% CO2 humidified incubator at 37° C. When cultures reached 80% confluence, the cells were washed thoroughly in PBS (without Ca^2+ and Mg^2+) and lifted with 5 mM EDTA in PBS. Cells were pelleted by centrifugation, resuspended in lysis buffer (10 mM Tris-HCl, pH 7.5 containing 1 mM EDTA), homogenized, pelleted by centrifugation, then resuspended in 50 mM Tris-HCl, pH 7.5 and 10% sucrose at 4° C. Protein concentration of the membrane suspension was determined using a Bio-Rad Bradford Protein Assay kit. Membranes were snap frozen and stored at −80° C. Chinese hamster ovary membranes expressing hDAT (CHO-DAT) were purchased from PerkinElmer and stored at −80° C.
(§3) Stock solutions (10 mM in DMSO) of test compound were prepared and serial dilutions made using Dilution Buffer (50 mM Tris-HCl, 120 mM NaCl, 5 mM KCl, pH 7.4, 0.1% BSA, 400 μM ascorbic acid).
(§4) Following a 60 minute incubation at 22° C. (or a period sufficient to reach equilibrium), the membranes were harvested by rapid filtration over a 96-well UniFilter GF/B plate, pretreated with 0.3% polyethyleneimine, and washed 6 times with 300 μl wash buffer (50 mM Tris-HCl, 0.9% NaCl, pH 7.5 at 4° C.). Plates were dried overnight at room temperature, ˜45 μl of MicroScint™-20 (Perkin Elmer) added and bound radioactivity quantitated via liquid scintillation spectroscopy. Competitive inhibition curves and saturation isotherms were analyzed using GraphPad Prism Software package (GraphPad Software, Inc., San Diego, Calif.). IC50 values were generated from concentration response curves using the Sigmoidal Dose Response (variable slope) algorithm in Prism GraphPad.

hNET = molecular target: T2, hNET (Homo sapiens, UniProt P23975); assay: hNET binding assay (Assay 1); conditions: read-out: NET pKi (converted)
T2 construct: expressed in transfected cells; host or cells: HEK-293 derived cell line, stably transfected; membrane preparation
Procedure: as §1, §2, §3, §4

[1] = ratio of binding Ki at SERT to Ki at NET, the tables list only compounds with a ratio in the range 0.1-100
[2] = hNET binding, the tables list only compounds with NET pKi≧8
[3] = ratio of binding Ki at hSERT to Ki at hNET, rounded off to the nearest tenth
[4] = membranes of HEK-293 cells expressing hNET, 1.0 nM 3H-nisoxetine

T1 sequence (P31645 whole entry): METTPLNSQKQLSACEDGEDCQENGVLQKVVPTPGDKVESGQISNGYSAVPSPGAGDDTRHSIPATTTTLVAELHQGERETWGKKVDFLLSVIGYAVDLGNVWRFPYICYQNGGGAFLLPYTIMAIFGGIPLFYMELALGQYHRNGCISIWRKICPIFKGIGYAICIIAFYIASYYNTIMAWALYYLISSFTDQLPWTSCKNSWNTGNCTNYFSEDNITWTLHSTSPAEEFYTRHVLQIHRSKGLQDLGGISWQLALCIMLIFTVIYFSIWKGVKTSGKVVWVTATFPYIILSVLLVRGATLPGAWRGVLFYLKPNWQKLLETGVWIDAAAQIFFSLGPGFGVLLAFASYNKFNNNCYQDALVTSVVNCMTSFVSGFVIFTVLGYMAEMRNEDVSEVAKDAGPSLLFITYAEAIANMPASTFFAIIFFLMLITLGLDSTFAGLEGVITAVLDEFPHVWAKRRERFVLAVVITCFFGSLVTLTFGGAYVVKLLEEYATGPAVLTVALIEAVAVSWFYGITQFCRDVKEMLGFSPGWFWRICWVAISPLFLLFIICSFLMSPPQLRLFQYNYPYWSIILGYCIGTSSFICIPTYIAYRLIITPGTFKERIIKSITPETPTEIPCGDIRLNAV
T2 sequence (P23975 whole entry): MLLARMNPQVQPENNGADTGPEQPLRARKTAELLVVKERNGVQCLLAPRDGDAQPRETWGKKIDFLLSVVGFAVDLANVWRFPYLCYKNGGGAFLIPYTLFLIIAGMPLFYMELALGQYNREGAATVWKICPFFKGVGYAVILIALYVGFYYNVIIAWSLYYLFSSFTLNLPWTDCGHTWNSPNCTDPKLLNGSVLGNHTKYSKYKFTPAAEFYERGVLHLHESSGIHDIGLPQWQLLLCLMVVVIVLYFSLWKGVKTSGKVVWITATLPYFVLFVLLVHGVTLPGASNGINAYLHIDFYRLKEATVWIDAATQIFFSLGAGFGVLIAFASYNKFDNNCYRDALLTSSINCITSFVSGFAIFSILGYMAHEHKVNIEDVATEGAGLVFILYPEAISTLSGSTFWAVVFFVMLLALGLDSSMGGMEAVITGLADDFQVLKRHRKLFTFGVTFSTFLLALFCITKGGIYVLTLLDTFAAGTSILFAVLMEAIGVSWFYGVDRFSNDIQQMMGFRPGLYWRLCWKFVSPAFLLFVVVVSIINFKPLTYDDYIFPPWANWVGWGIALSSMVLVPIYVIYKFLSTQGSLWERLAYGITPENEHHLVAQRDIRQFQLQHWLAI

SMILES | SERT Ki/NET Ki (hSERT; [1]) | Ki (hNET; [2]) | SERT Ki/NET Ki (hSERT; [3]) | Ki (hNET; [4])
NC(=O)c1cccc(C(Oc2c(F)cc(F)cc2F)C2CCNC2)c1 (centres unmarked) [45-5] | 3.2 | 7.94 nM | – | –
Fc1cc(F)c(Cl)c(OC(c2ccccc2)C2CCNC2)c1F (centres unmarked) [47-6] | 6.3 | 0.398 nM | – | –
Fc1cc(F)c(Cl)c(OC(c2ccccc2)C2CCNC2)c1F (centres unmarked) [47-7] | 0.4 | 0.501 nM | – | –
Fc1cc(F)cc(C(Oc2c(Cl)c(F)cc(F)c2Cl)C2CCNC2)c1 (centres unmarked) [48-1] | 2 | 0.501 nM | – | –
Fc1cc(F)cc([C@H](Oc2c(Cl)c(F)cc(F)c2Cl)[C@H]2CCNC2)c1 [48-2] | 10 | 0.398 nM | – | –
Fc1cc(F)cc([C@@H](Oc2c(Cl)c(F)cc(F)c2Cl)[C@@H]2CCNC2)c1 [48-3] | 2 | 0.251 nM | – | –
Fc1cc(F)c(Cl)c(OC(c2ccccc2Cl)C2CCNC2)c1Cl (centres unmarked) [48-4] | 0.2 | 7.94 nM | – | –
Fc1c(F)c(F)c(O[C@@H](c2ccccc2)[C@H]2CCNC2)c(F)c1F [49-1] | 2.5 | 3.98 nM | – | –
COC(=O)c1c(F)c(F)c(F)c(F)c1OC(c1ccccc1)C1CCNC1 (centres unmarked) [49-8] | 0.4 | 3.16 nM | – | –
Brc1ccccc1OC(c1ccccc1)C1CCNC1 (centres unmarked) [Compound 19-7] | – | – | 1 | 1 nM
Ic1ccccc1OC(c1ccccc1)C1CCNC1 (centres unmarked) [Compound 19-8] | – | – | 0.6 | 1 nM
CCc1ccccc1OC(c1ccccc1)C1CCNC1 (centres unmarked) [Compound 19-11] | – | – | 4 | 3.16 nM
CC(C)c1ccccc1OC(c1ccccc1)C1CCNC1 (centres unmarked) [Compound 19-12] | – | – | 16 | 2 nM
FC(F)(F)c1ccccc1OC(c1ccccc1)C1CCNC1 (centres unmarked) [Compound 19-13] | – | – | 7.9 | 2.51 nM
CC(C)Oc1ccccc1OC(c1ccccc1)C1CCNC1 (centres unmarked) [Compound 19-17] | – | – | 40 | 3.16 nM
FC(F)(F)Oc1ccccc1OC(c1ccccc1)C1CCNC1 (centres unmarked) [Compound 19-18] | – | – | 20 | 1.26 nM

SMILES | SERT Ki/NET Ki (hSERT; [1]) | Ki (hNET; [2]) | SERT Ki/NET Ki (hSERT; [3]) | Ki (hNET; [4])
c1ccc(-c2ccccc2OC(c2ccccc2)C2CCNC2)cc1 (centres unmarked) [Compound 19-19] | – | – | 32 | 2 nM
c1ccc(Cc2ccccc2OC(c2ccccc2)C2CCNC2)cc1 (centres unmarked) [Compound 19-20] | – | – | 1.6 | 7.94 nM
c1ccc(Cc2ccccc2OC(c2ccccc2)C2CCNC2)cc1 (centres unmarked) [Compound 19-21] | – | – | 5 | 5.01 nM
CCC(=O)c1ccccc1OC(c1ccccc1)C1CCNC1 (centres unmarked) [Compound 19-26] | – | – | 50 | 3.98 nM
CCC(=O)c1ccccc1OC(c1ccccc1)C1CCNC1 (centres unmarked) [Compound 19-27] | – | – | 100 | 2 nM
CSc1ccccc1OC(c1ccccc1)C1CCNC1 (centres unmarked) [Compound 19-29] | – | – | 25 | 0.631 nM
CSc1ccccc1OC(c1ccccc1)C1CCNC1 (centres unmarked) [Compound 19-30] | – | – | 63 | 0.398 nM
Clc1ccccc1OC(c1ccccc1Cl)C1CCNC1 (centres unmarked) [Compound 20-1] | – | – | 0.5 | 3.16 nM
Fc1cccc(C(Oc2ccccc2Cl)C2CCNC2)c1 (centres unmarked) [Compound 20-4] | – | – | 0.63 | 2.51 nM
Clc1cccc(C(Oc2ccccc2Cl)C2CCNC2)c1 (centres unmarked) [Compound 20-5] | – | – | 1.6 | 2.51 nM
COc1cccc(C(Oc2ccccc2Cl)C2CCNC2)c1 (centres unmarked) [Compound 20-7] | – | – | 1.3 | 3.16 nM
COc1cccc(C(Oc2ccccc2C(C)C)C2CCNC2)c1 (centres unmarked) [Compound 20-10] | – | – | 2.5 | 5.01 nM
CC(C)c1ccccc1OC(c1cccc(Cl)c1)C1CCNC1 (centres unmarked) [Compound 20-12] | – | – | 7.9 | 5.01 nM
CC(C)c1ccccc1OC(c1cccc(F)c1)C1CCNC1 (centres unmarked) [Compound 20-13] | – | – | 10 | 5.01 nM
COc1ccccc1OC(c1cccc(F)c1)C1CCNC1 (centres unmarked) [Compound 20-15] | – | – | 4 | 5.01 nM
